For one molecule, remaining binding results are on record in article PMC6576746, “Rational discovery of dual-indication multi-target PDE/Kinase inhibitor for precision anti-cancer therapy using structural systems pharmacology” (PLoS Computational Biology, 2019).

Holding throughout (assay): biochemical
What all share (parameters): DiscoverX KinomeScan competition binding assay across human kinases; per cent of control at 10 and 100 uM

The target in assay [1] is T1, ABL1(F317I)-nonphosphorylated (Homo sapiens, UniProt P00519, F317I).
T1 construct: nonphosphorylated
Conditions: competition binding, % of control; read-out: Percent Control (100 uM Levosimendan). The method, boiled down:
(§1)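 KinomeScan competition binding was run across a human kinase panel at 10 μM and 100 μM levosimendan. Results are %control = (test − positive control)/(negative control − positive control) × 100.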

The target of another assay is CSNK1A1 (Homo sapiens, UniProt P48729). Conditions: competition binding, % of control. Put shortly: as §1
A further assay concerns the target T2, CTK (Homo sapiens, UniProt P42679).
T2 construct: gene MATK
Conditions: competition binding, % of control; read-out: Percent Control (100 uM Levosimendan). The method, boiled down:
as §1

Assay [2] concerns the target EGFR(L747-E749del, A750P) (Homo sapiens, UniProt P00533, A750P/DEL747-749). The following applies: competition binding, % of control; read-out: Percent Control (100 uM Levosimendan). The method, boiled down:
as §1

The next assay deals with EPHA7 (Homo sapiens, UniProt Q15375). The following applies: competition binding, % of control; read-out: Percent Control (100 uM Levosimendan). The method, boiled down: as §1
A further assay concerns the target EPHB2 (Homo sapiens, UniProt P29323). The following applies: competition binding, % of control; read-out: Percent Control (100 uM Levosimendan). Put shortly: as §1
The next assay addresses FRK (Homo sapiens, UniProt P42685). Conditions: competition binding, % of control; read-out: Percent Control (100 uM Levosimendan). The method, boiled down: as §1
The target in a further assay is T3, IKK-beta (Homo sapiens, UniProt O14920).
T3 construct: gene IKBKB
The following applies: competition binding, % of control; read-out: Percent Control (100 uM Levosimendan). Put shortly: as §1

The target of the next assay is IRAK3 (Homo sapiens, UniProt Q9Y616). The following applies: competition binding, % of control; read-out: Percent Control (100 uM Levosimendan). The method, boiled down: as §1
The target in another assay is T4, JNK2 (Homo sapiens, UniProt P45984).
T4 construct: gene MAPK9
Conditions: competition binding, % of control; read-out: Percent Control (100 uM Levosimendan). The method, boiled down: as §1

The target of the next assay is MARK2 (Homo sapiens, UniProt Q7KZI7). Conditions: competition binding, % of control; read-out: Percent Control (100 uM Levosimendan). The method, boiled down:
as §1

The next assay addresses PDGFRB (Homo sapiens, UniProt P09619). Conditions: competition binding, % of control. Put shortly:
as §1

The target of another assay is PIK3C2B (Homo sapiens, UniProt O00750). The following applies: competition binding, % of control; read-out: Percent Control (100 uM Levosimendan). Put shortly:
as §1

For a further assay, the target named is PIM1 (Homo sapiens, UniProt P11309). The following applies: competition binding, % of control; read-out: Percent Control (100 uM Levosimendan). The method, boiled down:
as §1

A further assay has as its target T5, PRP4 (Homo sapiens, UniProt Q13523).
T5 construct: gene PRPF4B
The following applies: competition binding, % of control; read-out: Percent Control (100 uM Levosimendan). Put shortly:
as §1

Another assay has as its target RAF1 (Homo sapiens, UniProt P04049). Conditions: competition binding, % of control; read-out: Percent Control (100 uM Levosimendan). Put shortly: as §1
The target in assay [3] is T6, RPS6KA5(Kin.Dom.2-C-terminal) (Homo sapiens, UniProt O75582).
T6 construct: Kin.Dom.2-C-terminal
Conditions: competition binding, % of control; read-out: Percent Control (100 uM Levosimendan). Put shortly: as §1

Another assay addresses T7, SGK (Homo sapiens, UniProt O00141).
T7 construct: gene SGK1
Conditions: competition binding, % of control. Put shortly: as §1

Another assay concerns the target TSSK3 (Homo sapiens, UniProt Q96PN8). Conditions: competition binding, % of control; read-out: Percent Control (100 uM Levosimendan). The method, boiled down:
as §1

The mark [4] stands for this setting: read-out: Percent Control (10 uM Levosimendan).
Where [5] appears, read: read-out: Percent Control (100 uM Levosimendan).

T7 sequence (O00141 whole entry): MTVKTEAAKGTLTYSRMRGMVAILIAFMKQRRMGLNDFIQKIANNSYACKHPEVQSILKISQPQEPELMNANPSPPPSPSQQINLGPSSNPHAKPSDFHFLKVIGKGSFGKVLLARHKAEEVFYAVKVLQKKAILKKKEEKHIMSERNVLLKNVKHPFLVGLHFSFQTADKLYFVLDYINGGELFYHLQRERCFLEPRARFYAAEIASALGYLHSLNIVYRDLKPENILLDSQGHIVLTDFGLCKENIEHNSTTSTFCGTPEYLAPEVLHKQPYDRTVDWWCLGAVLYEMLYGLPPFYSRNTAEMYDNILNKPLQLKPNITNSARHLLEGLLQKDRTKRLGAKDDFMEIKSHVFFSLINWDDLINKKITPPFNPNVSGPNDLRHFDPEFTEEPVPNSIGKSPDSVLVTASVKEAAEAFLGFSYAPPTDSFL
Chain of PDGFRB (P09619 whole entry): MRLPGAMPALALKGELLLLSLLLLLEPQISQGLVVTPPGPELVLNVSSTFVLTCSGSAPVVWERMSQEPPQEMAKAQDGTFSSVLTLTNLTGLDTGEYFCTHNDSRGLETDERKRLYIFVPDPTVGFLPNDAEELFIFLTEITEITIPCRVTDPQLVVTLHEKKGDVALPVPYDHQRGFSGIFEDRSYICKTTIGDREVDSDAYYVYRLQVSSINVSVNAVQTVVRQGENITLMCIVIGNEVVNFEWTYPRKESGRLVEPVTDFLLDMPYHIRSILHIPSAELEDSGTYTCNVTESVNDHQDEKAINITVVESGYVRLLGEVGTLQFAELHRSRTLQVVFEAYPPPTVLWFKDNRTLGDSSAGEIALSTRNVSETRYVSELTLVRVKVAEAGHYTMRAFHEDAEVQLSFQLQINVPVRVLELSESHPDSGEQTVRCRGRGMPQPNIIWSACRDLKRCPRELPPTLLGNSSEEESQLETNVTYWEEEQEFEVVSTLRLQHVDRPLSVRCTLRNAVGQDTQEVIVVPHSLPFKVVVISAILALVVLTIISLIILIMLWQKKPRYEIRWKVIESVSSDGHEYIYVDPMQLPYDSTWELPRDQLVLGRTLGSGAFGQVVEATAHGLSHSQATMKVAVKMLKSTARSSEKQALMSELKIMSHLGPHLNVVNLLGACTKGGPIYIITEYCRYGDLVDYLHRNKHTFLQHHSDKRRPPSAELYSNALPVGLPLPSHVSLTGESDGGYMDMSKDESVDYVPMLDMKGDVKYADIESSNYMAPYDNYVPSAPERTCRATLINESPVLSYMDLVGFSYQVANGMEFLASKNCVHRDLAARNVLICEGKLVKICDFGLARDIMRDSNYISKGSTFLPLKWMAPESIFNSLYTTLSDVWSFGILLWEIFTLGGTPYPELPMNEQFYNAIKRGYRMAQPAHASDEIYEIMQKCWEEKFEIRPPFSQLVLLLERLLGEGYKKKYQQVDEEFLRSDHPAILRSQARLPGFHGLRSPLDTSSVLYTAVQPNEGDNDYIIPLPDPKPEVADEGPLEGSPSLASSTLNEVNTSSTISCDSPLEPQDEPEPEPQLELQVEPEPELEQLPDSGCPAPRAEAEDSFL
Chain of CSNK1A1 (P48729 whole entry): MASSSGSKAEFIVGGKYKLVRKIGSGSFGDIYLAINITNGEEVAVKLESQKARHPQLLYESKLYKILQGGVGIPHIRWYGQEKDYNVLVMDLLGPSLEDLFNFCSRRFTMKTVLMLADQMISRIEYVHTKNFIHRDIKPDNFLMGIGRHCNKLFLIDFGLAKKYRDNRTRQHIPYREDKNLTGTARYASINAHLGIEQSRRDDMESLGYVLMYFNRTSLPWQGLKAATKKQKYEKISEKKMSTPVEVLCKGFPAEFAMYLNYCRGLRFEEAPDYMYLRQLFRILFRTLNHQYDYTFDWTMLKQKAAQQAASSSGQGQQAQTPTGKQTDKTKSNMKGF
Chain of IRAK3 (Q9Y616 whole entry): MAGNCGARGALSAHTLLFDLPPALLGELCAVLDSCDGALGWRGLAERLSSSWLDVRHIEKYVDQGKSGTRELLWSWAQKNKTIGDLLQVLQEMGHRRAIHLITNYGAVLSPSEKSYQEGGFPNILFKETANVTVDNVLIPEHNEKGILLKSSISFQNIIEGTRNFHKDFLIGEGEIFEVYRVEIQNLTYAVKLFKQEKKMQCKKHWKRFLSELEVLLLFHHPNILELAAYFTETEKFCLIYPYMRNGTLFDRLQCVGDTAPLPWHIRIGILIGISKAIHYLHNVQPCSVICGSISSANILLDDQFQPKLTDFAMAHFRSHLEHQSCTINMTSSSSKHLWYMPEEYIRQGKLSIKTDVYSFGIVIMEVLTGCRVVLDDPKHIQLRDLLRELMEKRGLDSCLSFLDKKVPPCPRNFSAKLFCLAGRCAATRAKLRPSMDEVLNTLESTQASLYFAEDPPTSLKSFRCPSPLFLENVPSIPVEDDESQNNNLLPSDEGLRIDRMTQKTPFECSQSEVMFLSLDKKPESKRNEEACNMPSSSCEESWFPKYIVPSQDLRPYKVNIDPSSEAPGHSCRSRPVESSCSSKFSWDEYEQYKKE
Chain of RAF1 (P04049 whole entry): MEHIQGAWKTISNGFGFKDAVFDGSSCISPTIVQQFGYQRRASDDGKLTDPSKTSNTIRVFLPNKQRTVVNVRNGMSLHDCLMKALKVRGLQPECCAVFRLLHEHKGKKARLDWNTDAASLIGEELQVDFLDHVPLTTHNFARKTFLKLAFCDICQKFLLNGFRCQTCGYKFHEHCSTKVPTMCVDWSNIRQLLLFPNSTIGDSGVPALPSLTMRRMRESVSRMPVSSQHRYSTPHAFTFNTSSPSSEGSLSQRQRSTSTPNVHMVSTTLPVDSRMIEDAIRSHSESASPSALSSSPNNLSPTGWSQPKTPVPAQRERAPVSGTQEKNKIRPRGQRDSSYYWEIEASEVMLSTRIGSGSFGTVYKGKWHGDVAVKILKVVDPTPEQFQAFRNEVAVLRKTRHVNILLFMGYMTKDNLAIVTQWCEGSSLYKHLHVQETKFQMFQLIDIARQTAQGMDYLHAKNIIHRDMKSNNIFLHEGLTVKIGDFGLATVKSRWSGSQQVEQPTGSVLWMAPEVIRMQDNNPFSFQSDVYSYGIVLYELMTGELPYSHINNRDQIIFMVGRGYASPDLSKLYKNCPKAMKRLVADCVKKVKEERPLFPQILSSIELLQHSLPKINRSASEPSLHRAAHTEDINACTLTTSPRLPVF
T2 sequence (P42679 whole entry): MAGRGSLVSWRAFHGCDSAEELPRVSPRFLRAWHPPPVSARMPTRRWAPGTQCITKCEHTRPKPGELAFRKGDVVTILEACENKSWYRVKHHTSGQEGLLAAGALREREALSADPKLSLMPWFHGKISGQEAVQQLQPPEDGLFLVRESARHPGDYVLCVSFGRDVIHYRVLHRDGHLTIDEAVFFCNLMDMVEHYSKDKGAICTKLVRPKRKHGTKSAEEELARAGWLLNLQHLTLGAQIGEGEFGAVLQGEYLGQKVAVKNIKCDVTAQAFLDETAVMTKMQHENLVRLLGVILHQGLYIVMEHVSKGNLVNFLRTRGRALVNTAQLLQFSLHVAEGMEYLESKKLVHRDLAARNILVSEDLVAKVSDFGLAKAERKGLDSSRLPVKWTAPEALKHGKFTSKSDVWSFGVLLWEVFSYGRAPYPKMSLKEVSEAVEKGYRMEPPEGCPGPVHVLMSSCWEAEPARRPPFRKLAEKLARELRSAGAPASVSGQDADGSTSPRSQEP
T4 sequence (P45984 whole entry): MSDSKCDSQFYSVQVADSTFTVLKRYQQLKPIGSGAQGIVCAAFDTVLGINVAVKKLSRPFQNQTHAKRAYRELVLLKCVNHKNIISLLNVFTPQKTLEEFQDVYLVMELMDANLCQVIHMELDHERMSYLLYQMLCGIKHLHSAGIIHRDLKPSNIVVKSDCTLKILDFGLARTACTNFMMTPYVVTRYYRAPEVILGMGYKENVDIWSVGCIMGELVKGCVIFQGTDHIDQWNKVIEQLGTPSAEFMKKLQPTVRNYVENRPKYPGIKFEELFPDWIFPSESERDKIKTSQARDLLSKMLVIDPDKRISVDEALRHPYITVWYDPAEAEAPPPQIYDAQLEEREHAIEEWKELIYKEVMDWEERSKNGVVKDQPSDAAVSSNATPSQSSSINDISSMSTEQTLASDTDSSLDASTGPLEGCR
Chain of TSSK3 (Q96PN8 whole entry): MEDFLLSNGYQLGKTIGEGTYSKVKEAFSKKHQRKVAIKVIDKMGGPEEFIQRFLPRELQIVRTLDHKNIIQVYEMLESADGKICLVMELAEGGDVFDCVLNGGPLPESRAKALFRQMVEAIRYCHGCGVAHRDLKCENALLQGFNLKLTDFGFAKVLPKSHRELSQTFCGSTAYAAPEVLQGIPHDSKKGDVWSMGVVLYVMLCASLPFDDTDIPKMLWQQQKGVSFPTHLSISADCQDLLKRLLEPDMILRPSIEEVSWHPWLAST
Chain of PIM1 (P11309 whole entry): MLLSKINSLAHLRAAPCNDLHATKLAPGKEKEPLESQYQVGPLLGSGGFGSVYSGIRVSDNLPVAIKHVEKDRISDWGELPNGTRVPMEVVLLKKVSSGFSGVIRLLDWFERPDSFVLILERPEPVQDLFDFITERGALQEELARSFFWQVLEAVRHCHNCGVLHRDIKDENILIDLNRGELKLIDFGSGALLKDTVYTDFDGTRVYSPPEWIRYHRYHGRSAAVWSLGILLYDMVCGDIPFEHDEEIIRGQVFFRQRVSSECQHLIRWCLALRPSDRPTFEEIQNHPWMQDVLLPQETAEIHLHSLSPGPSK

Take `C[C@@H]1CC(=O)NN=C1c1ccc(NN=C(C#N)C#N)cc1` [levosimendan]: the remaining binding at 100 µM worked out at 100% in [1]; 42% at CSNK1A1 (setting [5]); 72% at CTK; 64% in assay [2]; 85% at EPHA7; 77% at EPHB2. For the same molecule, the remaining binding at 100 µM on FRK came out at 100%; at IKK-beta it was 74%; on IRAK3, 100%; at JNK2, 100%; on MARK2, 95%; at PDGFRB (setting [5]), 12%. Besides, the remaining binding at 100 µM at PIK3C2B was determined as 90%; on PIM1 it was 64%; on PRP4 it was 100%; on RAF1 it was 77%; in assay [3], 100%; on SGK (setting [5]), 40%. Moreover, the remaining binding at 100 µM on TSSK3 was determined as 100%. The remaining binding at 10 µM worked out at 98% at CSNK1A1 (setting [4]), 58% on PDGFRB (setting [4]) and 81% at SGK (setting [4]).
